ChEMBL document CHEMBL5053557, “Discovery of Novel Dual-Target Inhibitor of Bromodomain-Containing Protein 4/Casein Kinase 2 Inducing Apoptosis and Autophagy-Associated Cell Death for Triple-Negative Breast Cancer Therapy” (J Med Chem, 2021)
Calls of active or inactive are those of the source. No cut-off for these calls is given here.

Tests used:
MDA-MB-468 [1] = test: Induction of apoptosis in human MDA-MB-468 cells assessed as down regulation of Bcl2 after 24 hrs by Western blot analysis; format: functional, cell-based; settings: dose 2.5-10 µM
MDA-MB-468 [2] = test: Induction of autophagy in human MDA-MB-468 cells harboring GFP-mRFP-LC3 assessed as autophagic flux at 5 uM after 24 hrs by fluorescence microscopic analysis; format: functional, cell-based
Mus musculus [3] = test: Toxicity in nude BALB/c mouse xenografted with human MDA-MB-468 cells assessed as mortality at 25 to 50 mg/kg, po administered once daily for 19 days and measured every 3 days; format: organism-based; settings: in vivo, 456 h, dose 25-50 mg/kg, time 19 day
[4] = target: Bromodomain-containing protein 2 (Homo sapiens, UniProt P25440); test: Inhibition of BRD2 BD2 (unknown origin) incubated for 2 hrs by TR-FRET assay
Mus musculus [5] = test: Toxicity in nude BALB/c mouse xenografted with human MDA-MB-231 cells assessed as mortality at 25 to 50 mg/kg, po administered once daily for 19 days and measured every 3 days; format: organism-based; settings: in vivo, 456 h, dose 25-50 mg/kg, time 19 day
MDA-MB-231 [6] = test: Induction of autophagy in human MDA-MB-231 cells xenografted in nude BALB/c mouse assessed as increase in LC3II expression at 25 to 50 mg/kg, po administered once daily for 19 days by immunohistochemistry analysis; format: functional, organism-based; settings: dose lower […], dose upper 50.0 mg/kg, time 19.0 day
MDA-MB-231 [7] = test: Induction of autophagy in human MDA-MB-231 cells harboring GFP-mRFP-LC3 assessed as up regulation of LC3II level at 2.5 to 10 uM after 24 hrs by Western blot analysis; format: functional, cell-based; settings: dose 2.5-10 µM
[8] = target: Bromodomain-containing protein 3 (Homo sapiens, UniProt Q15059); test: Inhibition of BRD3 BD1 (unknown origin) incubated for 2 hrs by TR-FRET assay
[9] = AUC(0 to t) in Sprague-Dawley rat at 10 mg/kg, po by LC-MS analysis; format: ADME, organism-based; design: dose 10 mg/kg, route po; settings: in vivo
Mus musculus [10] = test: Toxicity in nude BALB/c mouse xenografted with human MDA-MB-231 cells assessed as morphological changes in kidney at 25 to 50 mg/kg, po administered once daily for 19 days and measured every 3 days by H and E staining based assay; format: organism-based; settings: in vivo, 456 h, dose 25-50 mg/kg, time 19 day
[11] = AUC(0 to infinity) in Sprague-Dawley rat at 1 mg/kg, iv by LC-MS analysis; format: ADME, organism-based; design: time infinity, dose 1 mg/kg, route iv; settings: in vivo
MDA-MB-231 [12] = test: Antiproliferative activity against JQ-1 resistant human MDA-MB-231 cells incubated for 24 hrs by MTT assay; format: functional, cell-based
Mus musculus [13] = test: Toxicity in nude BALB/c mouse xenografted with human MDA-MB-468 cells assessed as morphological changes in heart at 25 to 50 mg/kg, po administered once daily for 19 days and measured every 3 days by H and E staining based assay; format: organism-based; settings: in vivo, 456 h, dose 25-50 mg/kg, time 19 day
Mus musculus [14] = test: Toxicity in nude BALB/c mouse xenografted with human MDA-MB-231 cells assessed as morphological changes in spleen at 25 to 50 mg/kg, po administered once daily for 19 days and measured every 3 days by H and E staining based assay; format: organism-based; settings: in vivo, 456 h, dose 25-50 mg/kg, time 19 day
MDA-MB-468 [15] = test: Inhibition of colony formation in human MDA-MB-468 cells after 7 days by crystal violet staining based assay; format: functional, cell-based; settings: dose 2.5-10 µM, time 7.0 day
MDA-MB-231 [16] = test: Induction of autophagy in human MDA-MB-231 cells harboring GFP-mRFP-LC3 assessed as down regulation of p62 level at 5 uM after 24 hrs by Western blot analysis; format: functional, cell-based
MDA-MB-468 [17] = test: Induction of autophagy in human MDA-MB-468 cells harboring GFP-mRFP-LC3 assessed as up regulation of beclin 1 level at 2.5 to 10 uM after 24 hrs by Western blot analysis; format: functional, cell-based; settings: dose 2.5-10 µM
MDA-MB-231 [18] = test: Induction of autophagy in human MDA-MB-231 cells at 5 uM preincubated with 3-MA for 1 hr followed by compound addition and measured after 24 hrs by fluorescence microscopic analysis; format: functional, cell-based
Mus musculus [19] = test: Toxicity in nude BALB/c mouse xenografted with human MDA-MB-468 cells assessed as change in body weight at 25 to 50 mg/kg, po administered once daily for 19 days and measured every 3 days; format: organism-based; settings: in vivo, 456 h, dose 25-50 mg/kg, time 19 day
MDA-MB-231 [20] = test: Induction of apoptosis in human MDA-MB-231 cells after 24 hrs by Hoechst 33258 staining fluorescence microscopic analysis; format: functional, cell-based; settings: dose 2.5-10 µM
Mus musculus [21] = test: Toxicity in nude BALB/c mouse xenografted with human MDA-MB-231 cells assessed as change in body weight at 25 to 50 mg/kg, po administered once daily for 19 days and measured every 3 days; format: organism-based; settings: in vivo, 456 h, dose 25-50 mg/kg, time 19 day
[22] = Apparent volume of distribution in Sprague-Dawley rat at 1 mg/kg, iv by LC-MS analysis; format: ADME, organism-based; settings: in vivo, read-out: Vz
MDA-MB-468 [23] = test: Induction of apoptosis in human MDA-MB-468 cells assessed as up regulation of cleaved caspase 3 after 24 hrs by Western blot analysis; format: functional, cell-based; settings: dose 2.5-10 µM
[24] = Half life in Sprague-Dawley rat at 10 mg/kg, po by LC-MS analysis; format: ADME, organism-based; settings: in vivo
MDA-MB-231 [25] = test: Induction of apoptosis in human MDA-MB-231 cells assessed as down regulation of Bcl2 after 24 hrs by Western blot analysis; format: functional, cell-based; settings: dose 2.5-10 µM
MDA-MB-468 [26] = test: Induction of apoptosis in human MDA-MB-468 cells assessed as up regulation of Bax after 24 hrs by Western blot analysis; format: functional, cell-based; settings: dose 2.5-10 µM
MDA-MB-231 [27] = test: Antitumor activity against human MDA-MB-231 cells xenografted in nude BALB/c mouse assessed as tumor growth inhibition at 25 to 50 mg/kg, po administered once daily for 19 days and measured every 3 days by Ki-67 staining based immunohistochemical analysis; format: functional, organism-based; settings: dose lower […], dose upper 50.0 mg/kg, time 19.0 day
[28] = target: Casein kinase II subunit alpha (Homo sapiens, UniProt P68400); test: Inhibition of CK2 (unknown origin)
MDA-MB-231 [29] = test: Inhibition of colony formation in human MDA-MB-231 cells at 5 uM after 7 days in presence of 3-MA by crystal violet staining based assay; format: functional, cell-based; settings: time 7.0 day
[30] = Oral bioavailability in Sprague-Dawley rat at 10 mg/kg by LC-MS analysis; format: ADME, organism-based; settings: in vivo
Mus musculus [31] = test: Down regulation of phosphorylation of AKT at S129 residue expression in BALB/c SCID mouse xenogrfted with human MDA-MB-231 cells at 25 to 50 mg/kg, po administered once daily for 19 days by Western blot analysis; format: functional, organism-based; settings: dose lower […], dose upper 50.0 mg/kg, time 19.0 day
MDA-MB-231 [32] = test: Induction of autophagy in human MDA-MB-231 cells harboring GFP-mRFP-LC3 assessed as up regulation of beclin 1 level at 2.5 to 10 uM after 24 hrs by Western blot analysis; format: functional, cell-based; settings: dose 2.5-10 µM
Mus musculus [33] = test: Toxicity in nude BALB/c mouse xenografted with human MDA-MB-468 cells assessed as morphological changes in spleen at 25 to 50 mg/kg, po administered once daily for 19 days and measured every 3 days by H and E staining based assay; format: organism-based; settings: in vivo, 456 h, dose 25-50 mg/kg, time 19 day
Mus musculus [34] = test: Toxicity in nude BALB/c mouse xenografted with human MDA-MB-468 cells assessed as morphological changes in lung at 25 to 50 mg/kg, po administered once daily for 19 days and measured every 3 days by H and E staining based assay; format: organism-based; settings: in vivo, 456 h, dose 25-50 mg/kg, time 19 day

Bromodomain-containing protein 3, sequence (Q15059 whole entry): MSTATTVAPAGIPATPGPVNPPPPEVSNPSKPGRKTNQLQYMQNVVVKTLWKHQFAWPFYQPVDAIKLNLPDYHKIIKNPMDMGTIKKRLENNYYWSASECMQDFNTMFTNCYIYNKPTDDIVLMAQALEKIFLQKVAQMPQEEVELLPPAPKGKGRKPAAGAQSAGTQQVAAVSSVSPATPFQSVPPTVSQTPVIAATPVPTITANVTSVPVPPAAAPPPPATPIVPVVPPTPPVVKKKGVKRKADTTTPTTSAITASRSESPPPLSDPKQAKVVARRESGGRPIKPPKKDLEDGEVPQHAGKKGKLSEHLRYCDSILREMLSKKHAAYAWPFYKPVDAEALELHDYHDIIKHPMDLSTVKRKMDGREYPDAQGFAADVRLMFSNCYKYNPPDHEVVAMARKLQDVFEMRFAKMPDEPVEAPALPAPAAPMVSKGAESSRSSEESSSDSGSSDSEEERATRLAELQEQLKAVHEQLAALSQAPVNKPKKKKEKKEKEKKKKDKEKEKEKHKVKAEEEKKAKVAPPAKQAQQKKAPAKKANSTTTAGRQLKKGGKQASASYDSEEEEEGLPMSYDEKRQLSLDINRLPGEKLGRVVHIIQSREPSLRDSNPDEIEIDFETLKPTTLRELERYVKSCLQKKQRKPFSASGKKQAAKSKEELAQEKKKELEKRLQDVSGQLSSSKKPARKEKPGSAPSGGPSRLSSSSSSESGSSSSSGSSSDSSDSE
Bromodomain-containing protein 2, sequence (P25440 whole entry): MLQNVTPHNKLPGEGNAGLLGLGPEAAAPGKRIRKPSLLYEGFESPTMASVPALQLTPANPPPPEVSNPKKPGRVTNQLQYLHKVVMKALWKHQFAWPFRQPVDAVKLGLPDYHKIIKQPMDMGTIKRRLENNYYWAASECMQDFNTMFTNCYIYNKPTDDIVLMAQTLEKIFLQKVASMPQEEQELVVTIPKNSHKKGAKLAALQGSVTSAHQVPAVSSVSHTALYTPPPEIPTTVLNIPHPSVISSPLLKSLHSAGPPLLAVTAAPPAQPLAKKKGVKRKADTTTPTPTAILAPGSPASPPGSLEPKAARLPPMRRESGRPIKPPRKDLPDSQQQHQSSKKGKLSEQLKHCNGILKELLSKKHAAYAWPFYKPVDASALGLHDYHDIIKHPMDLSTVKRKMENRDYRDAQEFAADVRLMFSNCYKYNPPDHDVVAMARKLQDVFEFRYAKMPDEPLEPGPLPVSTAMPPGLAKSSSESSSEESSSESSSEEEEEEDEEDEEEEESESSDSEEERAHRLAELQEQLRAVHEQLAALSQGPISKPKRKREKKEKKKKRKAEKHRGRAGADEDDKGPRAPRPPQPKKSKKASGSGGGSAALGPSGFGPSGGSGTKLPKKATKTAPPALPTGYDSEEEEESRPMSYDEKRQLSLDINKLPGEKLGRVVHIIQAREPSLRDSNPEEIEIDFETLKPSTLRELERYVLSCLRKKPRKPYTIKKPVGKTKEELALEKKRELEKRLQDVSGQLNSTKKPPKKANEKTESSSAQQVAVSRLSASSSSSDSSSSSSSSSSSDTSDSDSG
Casein kinase II subunit alpha, sequence (P68400 whole entry): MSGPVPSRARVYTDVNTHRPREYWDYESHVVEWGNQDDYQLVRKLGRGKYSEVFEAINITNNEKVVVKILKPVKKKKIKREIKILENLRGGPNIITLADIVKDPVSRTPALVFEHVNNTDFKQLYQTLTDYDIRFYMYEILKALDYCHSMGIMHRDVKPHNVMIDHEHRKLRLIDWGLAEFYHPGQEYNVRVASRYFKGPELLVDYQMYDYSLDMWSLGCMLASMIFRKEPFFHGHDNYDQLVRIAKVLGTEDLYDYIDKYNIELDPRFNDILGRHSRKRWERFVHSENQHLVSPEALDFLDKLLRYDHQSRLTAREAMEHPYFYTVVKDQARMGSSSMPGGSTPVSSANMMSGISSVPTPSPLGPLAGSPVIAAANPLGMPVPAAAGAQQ

## COc1cc(OC)c2c(=O)[nH]c(-c3ccc(OCC(=O)Nc4ccc(N5CCN(C)CC5)c(Cl)c4)cc3)nc2c1
MDA-MB-468 [1]
  Activity: Dose-dependent effect
MDA-MB-468 [2]
  Activity: Active
Mus musculus [3]
  Activity: Non-Toxic
[4]
  IC50: 8.7 µM
Mus musculus [5]
  Activity: Non-Toxic
MDA-MB-231 [6]
  Activity: Active
MDA-MB-231 [7]
  Activity: Active
[8]
  IC50: 9.2 µM
[9]
  AUC(0-t): 2080 ng·h/mL
Mus musculus [10]
  Activity: Non-Toxic
[11]
  AUC: 588 ng·h/mL
MDA-MB-231 [12]
  Activity: Active
Mus musculus [13]
  Activity: Non-Toxic
Mus musculus [14]
  Activity: Non-Toxic
MDA-MB-468 [15]
  inhibition: Dose-dependent effect
MDA-MB-231 [16]
  Activity: Active
MDA-MB-468 [17]
  Activity: Active
MDA-MB-231 [18]
  Activity: inactive
Mus musculus [19]
  Activity: Non-Toxic
MDA-MB-231 [20]
  Activity: Dose-dependent effect
Mus musculus [21]
  Activity: Non-Toxic
[22]
  Vd: 21.1 L/kg
MDA-MB-468 [23]
  Activity: Dose-dependent effect
[24]
  half-life: 5.17 h
MDA-MB-231 [25]
  Activity: Dose-dependent effect
MDA-MB-468 [26]
  Activity: Dose-dependent effect
MDA-MB-231 [27]
  Activity: Active
[28]
  IC50: 0.23 µM
MDA-MB-231 [29]
  inhibition: inactive
[30]
  F: 32.5%
Mus musculus [31]
  Activity: Active
MDA-MB-231 [32]
  Activity: Active
Mus musculus [33]
  Activity: Non-Toxic
Mus musculus [34]
  Activity: Non-Toxic
